According to patent US20230310464A1, “USE OF C[…] THE TREATMENT OF SEIZURES ASSOCIATED WITH RARE […] SYNDROMES RELATED TO BRAIN INJURY” (GW Research Limited, priority 2020, published 2023):

System: seizures associated with hypoxic ischaemic encephalopathy (HIE) or anoxia at birth
Test: Open label, expanded-access program: seizure frequency recorded by caregivers in a diary, relative to baseline
Assay type: in vivo, human
Parameters: reduction in tonic seizures over the treatment period / reduction in spasms over the treatment period / reduction in absence seizures over the treatment period / reduction in tonic-clonic seizures over the treatment period / reduction in myoclonic seizures over the treatment period: concentration or dose not given beside the values; Seizure frequency, Tonic / Seizure frequency, Spasm / Seizure frequency, Absence / Seizure frequency, Tonic-clonic / Seizure frequency, Focal with impairment / Seizure frequency, Atonic / Seizure frequency, Focal without impairment / Seizure frequency, Focal secondary generalisation / Seizure frequency, Myoclonic: unit not given here
Description: Subjects were required to be on one or more AEDs at stable doses for a minimum of two weeks prior to baseline and to have stable vagus nerve stimulation (VNS) settings and ketogenic diet ratios for a minimum of four weeks prior to baseline.
Dose was then increased weekly by 5 mg/kg/day to a goal of 20 to 25 mg/kg/day.
Modifications were made to concomitant AEDs as per clinical indication.
Seizure frequency, intensity, and duration were recorded by caregivers in a diary during a baseline period of at least 28 days. Changes in seizure frequency relative to baseline were calculated after at least 2 weeks and at defined timepoints of treatment.
Patients may be defined as responders if they had more than 50% reduction in seizure frequency compared to baseline. The percent change in seizure frequency was calculated as follows: […]
The percent change of seizure frequency may be calculated for any time interval where seizure number has been recorded. For the purpose of this example the percent change of seizure frequency for the end of the treatment period was calculated as follows: […]

[1] = Patient 1, 2 weeks, CBD 8.3 mg/kg/day
[2] = Patient 1, 4 weeks, CBD 20.8 mg/kg/day
[3] = Patient 1, 8 weeks, CBD 25.2 mg/kg/day
[4] = Patient 1, 16 weeks, CBD 23.4 mg/kg/day
[5] = Patient 1, 24 weeks, CBD 22.9 mg/kg/day
[6] = Patient 1, 36 weeks, CBD 25.7 mg/kg/day
[7] = Patient 1, 48 weeks, CBD 21.8 mg/kg/day
[8] = Patient 1, treated for 48 weeks, vs baseline
[9] = Patient 2, 4 weeks, CBD 20.0 mg/kg/day
[10] = Patient 2, 8 weeks, CBD 25.0 mg/kg/day
[11] = Patient 2, 16 weeks, CBD 25.0 mg/kg/day
[12] = Patient 2, 24 weeks, CBD 25.0 mg/kg/day
[13] = Patient 2, 36 weeks, CBD 25.0 mg/kg/day
[14] = Patient 2, 48 weeks, CBD 25.0 mg/kg/day
[15] = Patient 2, 60 weeks, CBD 25.0 mg/kg/day
[16] = Patient 2, 72 weeks, CBD 25.0 mg/kg/day
[17] = Patient 2, 84 weeks, CBD 25.0 mg/kg/day
[18] = Patient 2, treated for 84 weeks, vs baseline
[19] = Patient 3, 4 weeks, CBD 5.0 mg/kg/day
[20] = Patient 3, 8 weeks, CBD 20.0 mg/kg/day
[21] = Patient 3, 12 weeks, CBD 25.0 mg/kg/day
[22] = Patient 3, 16 weeks, CBD 25.0 mg/kg/day
[23] = Patient 3, 24 weeks, CBD 30.0 mg/kg/day
[24] = Patient 3, 36 weeks, CBD 40.0 mg/kg/day
[25] = Patient 3, 48 weeks, CBD 50.0 mg/kg/day
[26] = Patient 3, 72 weeks, CBD 50.0 mg/kg/day
[27] = Patient 3, 84 weeks, CBD 50.0 mg/kg/day
[28] = Patient 3, 96 weeks, CBD 50.0 mg/kg/day
[29] = Patient 3, 108 weeks, CBD 50.0 mg/kg/day
[30] = Patient 3, 120 weeks, CBD 50.0 mg/kg/day
[31] = Patient 3, 132 weeks, CBD 50.0 mg/kg/day
[32] = Patient 4, 4 weeks, CBD 5.0 mg/kg/day
[33] = Patient 4, 8 weeks, CBD 5.0 mg/kg/day
[34] = Patient 4, 12 weeks, CBD 10.0 mg/kg/day
[35] = Patient 4, 24 weeks, CBD 15.0 mg/kg/day
[36] = Patient 4, 36 weeks, CBD 15.0 mg/kg/day

## C=C(C)[C@@H]1CCC(C)=C[C@H]1c1c(O)cc(CCCCC)cc1O [CBD, cannabidiol]
[1]
  Seizure frequency, Spasm: 108.0
  Seizure frequency, Tonic: 1044.0
[2]
  Seizure frequency, Spasm: 102.8
  Seizure frequency, Tonic: 904.0
[3]
  Seizure frequency, Spasm: 50.8
  Seizure frequency, Tonic: 770.0
[4]
  Seizure frequency, Spasm: 78.0
  Seizure frequency, Tonic: 764.8
[5]
  Seizure frequency, Spasm: 48.0
  Seizure frequency, Tonic: 917.2
[6]
  Seizure frequency, Spasm: 51.2
  Seizure frequency, Tonic: 634.0
[7]
  Seizure frequency, Spasm: 69.2
  Seizure frequency, Tonic: 424.8
[8]
  reduction in spasms over the treatment period: 44.2%
  reduction in tonic seizures over the treatment period: 59.8%
[9]
  Seizure frequency, Absence: 52.0
  Seizure frequency, Spasm: 440.0
[10]
  Seizure frequency, Absence: 52.0
  Seizure frequency, Spasm: 600.0
[11]
  Seizure frequency, Absence: 12.0
  Seizure frequency, Spasm: 632.0
[12]
  Seizure frequency, Absence: 24.0
  Seizure frequency, Spasm: 580.0
[13]
  Seizure frequency, Absence: 0
  Seizure frequency, Spasm: 560.0
[14]
  Seizure frequency, Absence: 0
  Seizure frequency, Spasm: 490.0
[15]
  Seizure frequency, Absence: 0
  Seizure frequency, Spasm: 196.0
[16]
  Seizure frequency, Absence: 0
  Seizure frequency, Spasm: 300.0
[17]
  Seizure frequency, Absence: 0
  Seizure frequency, Spasm: 340.0
[18]
  reduction in absence seizures over the treatment period: 100%
  reduction in spasms over the treatment period: 41.4%
[19]
  Seizure frequency, Focal with impairment: 43.0
  Seizure frequency, Tonic: 193.0
  Seizure frequency, Tonic-clonic: 2.0
[20]
  Seizure frequency, Focal with impairment: 132.0
  Seizure frequency, Tonic: 132.0
  Seizure frequency, Tonic-clonic: 0
[21]
  Seizure frequency, Focal with impairment: 38.0
  Seizure frequency, Tonic: 123.0
  Seizure frequency, Tonic-clonic: 0
[22]
  Seizure frequency, Focal with impairment: 46.0
  Seizure frequency, Tonic: 120.0
  Seizure frequency, Tonic-clonic: 6.0
[23]
  Seizure frequency, Focal with impairment: 51.2
  Seizure frequency, Tonic: 122.0
  Seizure frequency, Tonic-clonic: 4.8
[24]
  Seizure frequency, Tonic: 124.8
  Seizure frequency, Tonic-clonic: 20.0
[25]
  Seizure frequency, Focal with impairment: 38.8
  Seizure frequency, Tonic: 136.0
  Seizure frequency, Tonic-clonic: 11.2
[26]
  Seizure frequency, Focal with impairment: 53.0
  Seizure frequency, Tonic: 94.7
  Seizure frequency, Tonic-clonic: 4.0
[27]
  Seizure frequency, Focal with impairment: 53.0
  Seizure frequency, Tonic: 72.0
  Seizure frequency, Tonic-clonic: 5.7
[28]
  Seizure frequency, Focal with impairment: 46.3
  Seizure frequency, Tonic: 70.0
  Seizure frequency, Tonic-clonic: 11.6
[29]
  Seizure frequency, Focal with impairment: 46.4
  Seizure frequency, Tonic: 35.0
  Seizure frequency, Tonic-clonic: 10.4
[30]
  Seizure frequency, Focal with impairment: 62.8
  Seizure frequency, Tonic: 46.8
  Seizure frequency, Tonic-clonic: 9.8
[31]
  Seizure frequency, Focal with impairment: 77.2
  Seizure frequency, Tonic: 54.4
  Seizure frequency, Tonic-clonic: 12.0
[32]
  Seizure frequency, Atonic: 0
  Seizure frequency, Tonic: 4.0
  Seizure frequency, Tonic-clonic: 13.0
[33]
  Seizure frequency, Atonic: 0
  Seizure frequency, Tonic: 3.0
  Seizure frequency, Tonic-clonic: 18.0
[34]
  Seizure frequency, Atonic: 0
  Seizure frequency, Tonic: 0
  Seizure frequency, Tonic-clonic: 10.0
[35]
  Seizure frequency, Atonic: 6.0
  Seizure frequency, Tonic: 0
  Seizure frequency, Tonic-clonic: 0.6
[36]
  Seizure frequency, Atonic: 1.7
  Seizure frequency, Tonic: 0
